In the oligonucleotide strings, read from the 5' end, every base follows the letter of its sugar. An asterisk marks phosphorothioate; unmarked linkages are phosphodiester. Other units and linkages are bracketed, terminal groups are in braces. A string of capitals states the bases alone. e = 2'-O-(2-methoxyethyl) (MOE); [5mC] = 5-methylcytosine; d = 2'-deoxy (DNA)
How the values were obtained:
Format in all cases: cell-based
mouse p38α mRNA = assay: Inhibition of mouse p38α mRNA expression in bEND.3 cells, Northern blot
Description: (§1) bEND.3, a mouse endothelial cell line (gift of Dr. Werner Risau; see Montesano et al., Cell, 1990, 62, 435, and Stepkowski et al., J. Immunol., 1994, 153, 5336) were grown in high-glucose DMEM (Life Technologies, Gaithersburg, Md.) medium containing 10% fetal bovine serum (FBS) and 1% Penicillin/Streptomycinin. Cells were plated at approximately 2×10^5 cells per 100 mm dish. Within 48 hours of plating, the cells were washed with phosphate-buffered saline (Life Technologies). Then, Opti-MEM7 medium containing 3 μg/mL LIPOFECTIN^7 and an appropriate amount of oligonucleotide were added to the cells. As a control, cells were treated with LIPOFECTIN^7 without oligonucleotide under the same conditions and for the same times as the oligonucleotide-treated samples.
(§2) After 4 hours at 37° C., the medium was replaced with high glucose DMEM medium containing 10% FBS and 1% Penicillin/Streptomycinin. The cells were typically allowed to recover overnight (about 18 to 24 hours) before RNA and/or protein assays were performed as described in Example 2. The p38α, p38β and G3PDH probes used were identical to those described in Example 2.
(§3) Rat p38α antisense oligonucleotides were screened in bEND.3 cells for inhibition of p38α and p38β mRNA expression. The concentration of oligonucleotide used was 100 nM. Oligonucleotides 21844 (SEQ ID NO. 47), 21845 (SEQ ID NO. 48), 21872 (SEQ ID NO. 51), 21873 (SEQ ID NO. 52), 21875 (SEQ ID NO. 54), and 21876 (SEQ ID NO.
(§4) Mouse p38β antisense sequences were screened in bEND.3 cells as described in Example 4.

mouse p38β mRNA = assay: Inhibition of mouse p38β mRNA expression in bEND.3 cells, Northern blot
Description: as §1, §2, §3, §4

rat p38α mRNA = assay: Inhibition of rat p38α mRNA expression in A-10 cells, Northern blot; conditions: Rat A-10 cells, 200 nM oligonucleotide, 24 hours
Description: Rat p38α antisense oligonucleotides were screened in Rat A-10 cells. A-10 cells (American Type Culture Collection, Manassas, Va.) were grown in high-glucose DMEM (Life Technologies, Gaithersburg, Md.) medium containing 10% fetal calf serum (FCS). Cells were treated with oligonucleotide as described in Example 2. Oligonucleotide concentration was 200 nM. mRNA was isolated 24 hours after time zero and quantitated by Northern blot as described in Example 2.

IL-6 secretion = IL-6 secretion by IL-1 stimulated bEND.3 cells, ELISA; conditions: DOSE 200, 1 ng/mL mouse IL-1 for 6 hours, 48 hours after oligonucleotide
Description: p38 MAPK antisense oligonucleotides were tested for their ability to reduce IL-6 secretion. bEND.3 cells were cultured and treated as described in Example 4 except that 48 hours after oligonucleotide treatment, cells were stimulated for 6 hours with 1 ng/mL recombinant mouse IL-1 (R&D Systems, Minneapolis, Minn.). IL-6 was measured in the medium using an IL-6 ELISA kit (Endogen Inc., Woburn, Mass.).

[1] = 100 nM rat p38α antisense oligonucleotide
[2] = mouse p38β antisense oligonucleotides, screened as in Example 4

GoAoGoCoAsGsGsCsAsGsAsCsTsGsCsCoAoAoGoG (antisense eGeAeGe[5mC]eA*dG*dG*d[5mC]*dA*dG*dA*d[5mC]*dT*dG*d[5mC]*e[5mC]eAeAeGeG) [ISIS 21875]
% p38α mRNA INHIBITION (mouse p38α mRNA; dose 25 nM): 33% | % p38α mRNA INHIBITION (mouse p38α mRNA; dose 100 nM (dose response)): 72% | % p38β mRNA Inhibition (mouse p38β mRNA; [1]): minimal effects | % p38β mRNA Inhibition (mouse p38β mRNA; dose 1 nM): 11% | % p38β mRNA Inhibition (mouse p38β mRNA; dose 5 nM): 16% | % p38β mRNA Inhibition (mouse p38β mRNA; dose 25 nM): 2% | % p38β mRNA Inhibition (mouse p38β mRNA; dose 100 nM (dose response)): 4% | % p38α mRNA EXPRESSION (rat p38α mRNA): 26%

GoCoAoGoAsCsTsGsAsGsCsCsGsTsAsGoGoCoGoC (antisense eGe[5mC]eAeGeA*d[5mC]*dT*dG*dA*dG*d[5mC]*d[5mC]*dG*dT*dA*eGeGe[5mC]eGe[5mC]) [ISIS 100803]
% p38α mRNA INHIBITION (mouse p38α mRNA; [2]): 18%

GoGoToAoAsGsCsTsTsCsTsGsAsCsAsCoToToCoA (antisense eGeGeTeAeA*dG*d[5mC]*dT*dT*d[5mC]*dT*dG*dA*d[5mC]*dA*e[5mC]eTeTe[5mC]eA) [ISIS 21845]
% p38α mRNA EXPRESSION (rat p38α mRNA): 25%

ToAoCoCoAsCsCsGsTsGsTsGsGsCsCsAoCoAoToA (antisense eTeAe[5mC]e[5mC]eA*d[5mC]*d[5mC]*dG*dT*dG*dT*dG*dG*d[5mC]*d[5mC]*eAe[5mC]eAeTeA) [ISIS 100810]
% p38α mRNA INHIBITION (mouse p38α mRNA; [2]): 1%

GoGoCoAoCsAsAsAsGsCsTsAsAsTsGsAoCoToToC (antisense eGeGe[5mC]eAe[5mC]*dA*dA*dA*dG*d[5mC]*dT*dA*dA*dT*dG*eAe[5mC]eTeTe[5mC]) [ISIS 21872]
% p38α mRNA INHIBITION (mouse p38α mRNA; dose 25 nM): 35% | % p38α mRNA INHIBITION (mouse p38α mRNA; dose 100 nM (dose response)): 76% | % p38β mRNA Inhibition (mouse p38β mRNA; dose 100 nM (dose response)): 1% | % p38α mRNA EXPRESSION (rat p38α mRNA): 13%

AoCoAoToTsGsCsTsGsGsGsCsTsTsCsAoGoGoToC (antisense eAe[5mC]eAeTeT*dG*d[5mC]*dT*dG*dG*dG*d[5mC]*dT*dT*d[5mC]*eAeGeGeTe[5mC]) [ISIS 100808]
% p38α mRNA INHIBITION (mouse p38α mRNA; [2]): 13%

CoToGoCoGsAsCsAsTsTsTsTsCsCsAsGoCoGoGoC (antisense e[5mC]eTeGe[5mC]eG*dA*d[5mC]*dA*dT*dT*dT*dT*d[5mC]*d[5mC]*dA*eGe[5mC]eGeGe[5mC]) [ISIS 21844]
% p38α mRNA INHIBITION (mouse p38α mRNA; dose 25 nM): 36% | % p38α mRNA INHIBITION (mouse p38α mRNA; dose 100 nM (dose response)): 80% | % p38β mRNA Inhibition (mouse p38β mRNA; dose 25 nM): 8% | % p38β mRNA Inhibition (mouse p38β mRNA; dose 100 nM (dose response)): 5% | % p38α mRNA EXPRESSION (rat p38α mRNA): 75% | % p38α mRNA INHIBITION (rat p38α mRNA): 25%

CoAoToCoAsTsCsAsGsGsGsTsCsGsTsGoGoToAoC (antisense e[5mC]eAeTe[5mC]eA*dT*d[5mC]*dA*dG*dG*dG*dT*d[5mC]*dG*dT*eGeGeTeAe[5mC]) [ISIS 21871]
% p38α mRNA INHIBITION (mouse p38α mRNA; dose 1 nM): 1% | % p38α mRNA INHIBITION (mouse p38α mRNA; dose 5 nM): 23% | % p38α mRNA INHIBITION (mouse p38α mRNA; dose 25 nM): 34% | % p38α mRNA INHIBITION (mouse p38α mRNA; dose 100 nM (dose response)): 89% | % IL-6 INHIBITION (IL-6 secretion): 23% | % p38β mRNA Inhibition (mouse p38β mRNA; dose 5 nM): 4% | % p38β mRNA Inhibition (mouse p38β mRNA; dose 25 nM): 24% | % p38β mRNA Inhibition (mouse p38β mRNA; dose 100 nM (dose response)): 56% | % p38α mRNA EXPRESSION (rat p38α mRNA): 12%

GoAoGoCoCsTsGsTsGsCsCsTsGsGsCsAoCoToGoG (antisense eGeAeGe[5mC]e[5mC]*dT*dG*dT*dG*d[5mC]*d[5mC]*dT*dG*dG*d[5mC]*eAe[5mC]eTeGeG) [ISIS 21877]
% p38α mRNA INHIBITION (mouse p38α mRNA; [1]): 55% | % p38β mRNA Inhibition (mouse p38β mRNA; [1]): 13% | % p38α mRNA EXPRESSION (rat p38α mRNA): 12%

— patent US20040171566A1, “Antisense modulation of p38 mitogen activated protein kinase expression” (priority 1999, published 2004)
